Data as given in US8574563B2 (Bristol-Myers Squibb Company, priority 2006, dated 2013).

Test system: HCV 1b-377-neo replicon cells
Assay: HCV replicon assay, HCV 1b-377-neo replicon cells (1b FRET)
Type: cell-based, Hepatitis C virus genotype 1b
Conditions: HCV 1b-377-neo replicon cells; HCV 1b genotype; read-out: EC50 range against HCV 1b (Table 2, Range)
How it was run: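 FRET-based replicon assay in HCV 1b-377-neo cells, including a comparison line carrying the NS5A Y2065H mutation that confers resistance to a reference compound.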

| Compound | EC50 [nM] |
| --- | --- |
| CN(C)C(C(=O)N1CCCC1c1nc(-c2ccc(-c3ccc(-c4cnc(C5CCCN5C(=O)Cc5csc6ccccc56)[nH]4)cc3)cc2)c[nH]1)c1ccccc1 [Example 94-54, (1R)-2-((2S)-2-(5-(4′-(2-((2S)-1-(1-benzothiophen-3-ylacetyl)-2-pyrrolidinyl)-1H-imidazol-5-yl)-4-biphenylyl)-1H-imidazol-2-yl)-1-pyrrolidinyl)-N,N-dimethyl-2-oxo-1-phenylethanamine] | 0.001 to 0.999 |

Same assay, conditions: Hepatitis C virus, HCV 1b-377-neo replicon cells; HCV 1b genotype; read-out: EC50 range against HCV 1b (Table 2, Range)

| Compound | EC50 [nM] |
| --- | --- |
| CN(C)[C@@H](C(=O)N1CCC[C@H]1c1ncc(-c2ccc(-c3ccc(-c4cnc([C@@H]5CCCN5C(=O)[C@@H]5CCN(Cc6ccccc6)C5)[nH]4)cc3)cc2)[nH]1)c1ccccc1 [Example 94-17, (1R)-2-((2S)-2-(5-(4′-(2-((2S)-1-(((3R)-1-benzyl-3-pyrrolidinyl)carbonyl)-2-pyrrolidinyl)-1H-imidazol-5-yl)-4-biphenylyl)-1H-imidazol-2-yl)-1-pyrrolidinyl)-N,N-dimethyl-2-oxo-1-phenylethanamine] | 0.001 to 0.999 |
| COC(=O)N[C@@H](C(=O)N1CCC[C@H]1c1ncc(-c2ccc(-c3ccc(-c4cnc([C@@H]5CCCN5C(=O)[C@@H]5CC(F)(F)CN5)[nH]4)cc3)cc2)[nH]1)c1ccccc1 [Example 81, methyl ((1R)-2-((2S)-2-(5-(4′(2-((2S)-1-(4,4-difluoro-L-prolyl)-2-pyrrolidinyl)-1H-imidazol-5-yl)-4-biphenylyl)-1H-imidazol-2-yl)-1-pyrrolidinyl)-2-oxo-1-phenylethyl)carbamate] | 0.001 to 0.999 |
| CC(C)[C@H](NC(=O)C1CC1)C(=O)N1[C@@H]2C[C@@H]2C[C@H]1c1ncc(-c2ccc(-c3ccc(-c4cnc([C@@H]5C[C@H]6C[C@H]6N5C(=O)[C@@H](NC(=O)C5CC5)C(C)C)[nH]4)cc3)cc2)[nH]1 [Example M141, N-((1S)-1-(((1R,3S,5R)-3-(4-(4′-(2-((1R,3S,5R)-2-((2S)-2-((cyclopropylcarbonyl)amino)-3-methylbutanoyl)-2-azabicyclo[3.1.0]hex-3-yl)-1H-imidazol-4-yl)-4-biphenylyl)-1H-imidazol-2-yl)-2-azabicyclo[3.1.0]hex-2-yl)carbonyl)-2-methylpropyl)cyclopropanecarbamate] | 1 to 99 |
| COC[C@H](NC(=O)OC)C(=O)N1CCC[C@H]1c1ncc(-c2ccc(-c3ccc(-c4cnc([C@@H]5CCCN5C(=O)[C@H](COC)NC(=O)OC)[nH]4)cc3)cc2)[nH]1 [Example M26, methyl ((1S)-2-((2S)-2-(5-(4′-(2-((2S)-1-(N-(methoxycarbonyl)-O-methyl-L-seryl)-2-pyrrolidinyl)-1H-imidazol-5-yl)-4-biphenylyl)-1H-imidazol-2-yl)-1-pyrrolidinyl)-1-(methoxymethyl)-2-oxoethyl)carbamate] | 100 to 999 |
| CN(C)[C@@H](C(=O)N1CCC[C@H]1c1ncc(-c2ccc(-c3ccc(-c4cnc([C@@H]5CCCN5C(=O)Cc5ccsc5)[nH]4)cc3)cc2)[nH]1)c1ccccc1 [Example 94-48, (1R)-N,N-dimethyl-2-oxo-1-phenyl-2-((2S)-2-(5-(4′-(2-((2S)-1-(3-thienylacetyl)-2-pyrrolidinyl)-1H-imidazol-5-yl)-4-biphenylyl)-1H-imidazol-2-yl)-1-pyrrolidinyl)ethanamine] | 0.001 to 0.999 |
| C[C@H](O)C(=O)N1CCC[C@H]1c1nc(-c2ccc(-c3ccc(-c4cnc([C@@H]5CCCN5C(=O)[C@H](C)O)[nH]4)cc3)cc2)c[nH]1 [Example F27, (2S)-1-((2S)-2-(4-(4′-(2-((2S)-1-((2S)-2-hydroxypropanoyl)-2-pyrrolidinyl)-1H-imidazol-5-yl)-4-biphenylyl)-1H-imidazol-2-yl)-1-pyrrolidinyl)-1-oxo-2-propanol] | 1 to 99 |
| CN(C)[C@@H](C(=O)N1CCC[C@H]1c1ncc(-c2ccc(-c3ccc(-c4cnc([C@@H]5CCCN5C(=O)[C@@H](c5ccccc5F)N(C)C)[nH]4)cc3)cc2)[nH]1)c1ccccc1 [Example 107-31, (1R)-2-((2S)-2-(5-(4′-(2-((2S)-1-((2R)-2-(dimethylamino)-2-(2-fluorophenyl)acetyl)-2-pyrrolidinyl)-1H-imidazol-5-yl)-4-biphenylyl)-1H-imidazol-2-yl)-1-pyrrolidinyl)-N,N-dimethyl-2-oxo-1-phenylethanamine] | 0.001 to 0.999 |
| C[C@H](NC(=O)[C@@H](c1ccccc1)N(C)C)c1ncc(-c2ccc(-c3ccc(-c4cnc([C@@H]5CCCN5C(=O)[C@@H](c5ccccc5)N(C)C)[nH]4)cn3)cc2)[nH]1 [Example 152j-11, (2R)-2-(dimethylamino)-N-((1S)-1-(5-(4-(5-(2-((2S)-1-((2R)-2-(dimethylamino)-2-phenylacetyl)-2-pyrrolidinyl)-1H-imidazol-5-yl)-2-pyridinyl)phenyl)-1H-imidazol-2-yl)ethyl)-2-phenylacetamide] | 0.001 to 0.999 |
| CN(C)[C@@H](C(=O)N1CCC[C@H]1c1ncc(-c2ccc(-c3ccc(-c4cnc([C@@H]5CCCN5C(=O)Cc5cccc(F)c5)[nH]4)cc3)cc2)[nH]1)c1ccccc1 [Example 94-52, (1R)-2-((2S)-2-(5-(4′-(2-((2S)-1-((3-fluorophenyl)acetyl)-2-pyrrolidinyl)-1H-imidazol-5-yl)-4-biphenylyl)-1H-imidazol-2-yl)-1-pyrrolidinyl)-N,N-dimethyl-2-oxo-1-phenylethanamine] | 0.001 to 0.999 |
| COC(=O)N[C@H](C(=O)N1CCC[C@H]1c1ncc(-c2cnc(-c3ccc(-c4[nH]c([C@@H]5CCCN5C(=O)[C@@H](NC(=O)OC)C5CC5)nc4C(F)(F)F)cc3)nc2)[nH]1)C1CC1 [Example J49, methyl ((1S)-1-cyclopropyl-2-((2S)-2-(5-(4-(5-(2-((2S)-1-((2S)-2-cyclopropyl-2-((methoxycarbonyl)amino)acetyl)-2-pyrrolidinyl)-1H-imidazol-5-yl)-2-pyrimidinyl)phenyl)-4-(trifluoromethyl)-1H-imidazol-2-yl)-l-pyrrolidinyl)-2-oxoethyl)carbamate] | 0.001 to 0.999 |
| O=C([C@@H](c1ccccc1)N1CCCCC1)N1CC(F)(F)C[C@H]1c1nc(-c2ccc(-c3ccc(-c4cnc([C@@H]5CC(F)(F)CN5C(=O)[C@@H](c5ccccc5)N5CCCCC5)[nH]4)cc3)cc2)c[nH]1 [Example 24-8, 1,1′-(4,4′-biphenyldiylbis(1H-imidazol-4,2-diyl((2S)-4,4-difluoro-2,1-pyrrolidinediyl)((1R)-2-oxo-1-phenyl-2,1-ethanediyl)))dipiperidine] | 0.001 to 0.999 |
| CCN(CC)[C@@H](C(=O)N1CCC[C@H]1c1ncc(-c2ccc(-c3ccc(-c4cnc([C@@H]5CCCN5C(=O)[C@H](Cc5ccncc5)NC(=O)OC)[nH]4)cc3)cc2)[nH]1)c1ccccc1 [cj-89, methyl ((1S)-2-((2S)-2-(5-(4′-(2-((2S)-1-((2R)-2-(diethylamino)-2-phenylacetyl)-2-pyrrolidinyl)-1H-imidazol-5-yl)-4-biphenylyl)-1H-imidazol-2-yl)-1-pyrrolidinyl)-2-oxo-1-(4-pyridinylmethyl)ethyl)carbamate] | 0.001 to 0.999 |
| COC(=O)N[C@@H](C)C(=O)N1CCC[C@H]1c1ncc(-c2ccc(-c3ccc(-c4nc([C@@H]5CCCN5C(=O)[C@H](C)NC(=O)OC)[nH]c4C)cc3)cc2)[nH]1 [Example E5d, methyl ((1S)-2-((2S)-2-(4-(4′-(2-((2S)-1-(N-(methoxycarbonyl)-L-alanyl)-2-pyrrolidinyl)-4-methyl-1H-imidazol-5-yl)-4-biphenylyl)-1H-imidazol-2-yl)-1-pyrrolidinyl)-1-methyl-2-oxoethyl)carbamate] | 0.001 to 0.999 |
| CCOC(=O)N[C@H](C(=O)N1CCC[C@H]1c1nc(-c2ccc(-c3ccc(-c4c[nH]c([C@@H]5CCCN5C(=O)[C@@H](NC(=O)OCC)C(C)C)n4)cc3)cc2)c[nH]1)C(C)C [Example F25, ethyl ((1S)-1-(((2S)-2-(4-(4′-(2-((2S)-1-((2S)-2-((ethoxycarbonyl)amino)-3-methylbutanoyl)-2-pyrrolidinyl)-1H-imidazol-4-yl)-4-biphenylyl)-1H-imidazol-2-yl)-1-pyrrolidinyl)carbonyl)-2-methylpropyl)carbamate] | 0.001 to 0.999 |
| O=C([C@@H](c1ccccc1)N1CCCCC1)N1CCC[C@H]1c1ncc(-c2ccc(-c3ccc(-c4cnc([C@@H]5CCCN5C(=O)C5(C(F)(F)F)CC5)[nH]4)cc3)cc2)[nH]1 [Example 107-15, 1-((1R)-2-oxo-1-phenyl-2-((2S)-2-(5-(4′-(2-((2S)-1-((1-(trifluoromethyl)cyclopropyl)carbonyl)-2-pyrrolidinyl)-1H-imidazol-5-yl)-4-biphenylyl)-1H-imidazol-2-yl)-1-pyrrolidinyl)ethyl)piperidine] | 0.001 to 0.999 |
| COC(=O)N[C@@H](C(=O)N1[C@H](c2ncc(-c3ccc(-c4ccc(-c5cnc([C@@H]6C[C@@H]7C[C@@H]7N6C(=O)[C@H](NC(=O)OC)c6ccccc6)[nH]5)cc4)cc3)[nH]2)C[C@@H]2C[C@@H]21)c1ccccc1 [Example M124, dimethyl (4,4′-biphenyldiylbis(1H-imidazole-5,2-diyl(1S,3S,5S)-2-azabicyclo[3.1.0]hexane-3,2-diyl((1R)-2-oxo-1-phenyl-2,1-ethanediyl)))biscarbamate] | 1 to 99 |
| COC(=O)N[C@@H](C(=O)N1CCC[C@H]1c1ncc(-c2ccc(-c3ccc(-c4cnc([C@@H]5CCCN5C(=O)[C@H](NC(=O)OC)c5ccccc5)[nH]4)cn3)nc2)[nH]1)c1ccccc1 [Example 145, dimethyl (2,2′-bipyridine-5,5′-diylbis(1H-imidazole-5,2-diyl(2S)-2,1-pyrrolidinediyl((1R)-2-oxo-1-phenyl-2,1-ethanediyl)))biscarbamate] | 0.001 to 0.999 |
| CCN(CC)[C@@H](C(=O)N1CCC[C@H]1c1ncc(-c2ccc(-c3ccc(-c4cnc([C@@H]5CCCN5C(=O)[C@@H](NC(=O)OC)C5CCOCC5)[nH]4)cc3)cc2)[nH]1)c1ccccc1 [LS14, methyl ((1S)-2-((2S)-2-(5-(4′-(2-((2S)-1-((2R)-2-(diethylamino)-2-phenylacetyl)-2-pyrrolidinyl)-1H-imidazol-5-yl)-4-biphenylyl)-1H-imidazol-2-yl)-1-pyrrolidinyl)-2-oxo-1-(tetrahydro-2H-pyran-4-yl)ethyl)carbamate] | 0.001 to 0.999 |
